For one data set, the system named is TLR8. More on the design: method as in PMID 38741265, PMID 39411538. To be noted: Table 1; previously reported; cited from earlier work.
The test system of data set [1] is L. donovani promastigotes. In words: In vitro antipromastigote activity (trypan blue count, 48 h). Format: cell-based, Leishmania donovani MHOM/IN/80/DD8. To be noted: Leishmania donovani, mean ± SD. The protocol: M199 was added with 0.2% sodium bicarbonate and 10% heat-inactivated fetal bovine serum (FBS; Biowest, France) + antibiotics (gentamycin and streptomycin) by serial subcultures after every 48-72 hours by transferring 0.5-1.0 mL of culture supernatant in fresh medium and kept in a biological oxygen demand (BOD) incubator ([20]). […] The percentage growth inhibition was calculated using the following formulas: Percentage viability=No. of live cells in treated well/No. of live cells in blank well×100 Percentage growth inhibition=100 - percentage viability. The IC50 values were calculated using SPSS software, version 25 ([22]).

The nature of data set [2]: Cytotoxicity on RAW 264.7 macrophages (MTT, 48 h). Format: cell-based. As to conditions: mouse, RAW 264.7 macrophages. As for the experimental part:
(§1) To evaluate the cytotoxicity and antiamastigote assay, RAW 264.7 macrophages were cultured in Dulbecco’s modified Eagle medium (HiMedia, India), 10% heat-inactivated fetal bovine serum (FBS, Biowest) and cultured at 37°C (5% CO2). The macrophage cell growth was evaluated daily, and the cells were subcultured into a new flask containing fresh cell culture medium once they reached about 80%–90% confluency.
(§2) The cytotoxicity studies were performed using an immune cell line (RAW 264.7 macrophage) and non-immune epithelial cell line (HeLa) by 3-(4,5-dimethylthiazol-2-yl)-2,5-diphenyltetrazolium bromide (MTT) assay. A total of 7,000–10,000 cells/well were supplemented with different concentrations (2–64 μg/mL) of TLR7/8 agonists and incubated for 48 hours. MTT (1 mg/mL) (Hi-Media) was added to each well and kept for 4 hours. The formazan crystals formed were dissolved in 100 µL of dimethyl ulfoxide (DMSO), and absorbance at 550 nm was recorded using a microreader. AmB, MF, and Resiquimod were used as reference drugs. The percentage of cytotoxicity was calculated as [(absorbance of treated well − absorbance of blank) / (absorbance of untreated well − absorbance of blank)] × 100. The CC50 value was calculated with SPSS software. The SI of TLR7/8 agonists was obtained by calculating the ratio of CC50 (RAW 264.7 macrophage and HeLa cells) and IC50 (antipromastigote and antiamastigotes) ([21], [23]).

For a further data set, the system named is TLR7. Details: method as in PMID 38741265, PMID 39411538. As to conditions: Table 1, previously reported, cited from earlier work; for EC50: read-out: TLL7 EC50.
Data set [3] can be described thus: Cytotoxicity on HeLa cells (MTT, 48 h). As to conditions: human, HeLa cells. Format: cell-based, human. The protocol:
HeLa cells (human cervical epithelial cell line) were grown in RPMI-1640 (HiMedia) with 10% FBS and cultured at 37°C (5% CO2). The cells were evaluated daily using an inverted microscope for any contamination and subcultured after reaching confluency ([21]).
as §2

For data set [4], the system named is intracellular L. donovani amastigotes. Nature of the data set: Antiamastigote activity in infected RAW 264.7 macrophages (Giemsa count, 48 h). Format: cell-based. To be noted: Leishmania donovani, RAW264.7, intracellular amastigotes in RAW 264.7 macrophages, mean ± SD. The protocol: The macrophage cell growth was evaluated daily, and the cells were subcultured into a new flask containing fresh cell culture medium once they reached about 80%–90% confluency. […] Macrophages (2 × 10^4/mL) were plated on round coverslips placed in 24-well plates for 24 hours in a CO2 incubator (5% CO2) at 37°C. The coverslips were washed thrice with serum-free medium to remove the non-adherent cells. […] Infected macrophages were incubated with different concentrations of TLR7/8 agonists for 48 hours. After 48 hours, the coverslips were washed with phosphate-buffered saline (PBS), dried, fixed with chilled methanol, Giemsa-stained, and examined under a light microscope. A minimum of 200 macrophages were counted per coverslip to determine the number of amastigotes.

Data set [5] concerns RAW 264.7 macrophages. In words: NO production in RAW 264.7 macrophages (Griess reagent). Format: cell-based. The protocol: After 24 hours, non-adherent cells were removed, and adherent cells were incubated with TLR7/8 agonist for 48 hours in the presence or absence of LPS (1 µg/mL) (Biosciences) to evaluate both unstimulated and LPS-stimulated macrophage responses. After 48 hours, the culture supernatant (100 µL) was collected and mixed with an equal volume of Griess reagent (1% sulfanilamide and 0.1% naphthlethylenediamine dihydrochloride in 2.5% phosphoric acid) (Sigma), and absorbance was measured in a microreader at 540 nm. Nitrite concentration was evaluated from a standard curve generated with sodium nitrite ([25]).
(In general: Nitrite, measured by Griess reagent, commonly stands in for NO production.)

Data set [6] has as its system L. donovani promastigotes. Nature of the data set: Cell cycle progression in promastigotes (propidium iodide, flow cytometry). Format: cell-based, Leishmania donovani. As to conditions: promastigotes incubated with the IC50 for 48 hours; untreated 12.0% ± 1.05%. As for the experimental part: For analysis of the promastigote cell cycle, 2 × 10^6 promastigotes/mL were briefly incubated with the IC50 of TLR7/8 agonists in a 24-well culture plate. After 48 hours, promastigotes were washed with PBS and fixed with 70% (vol/vol) chilled ethanol. After 1 hour of incubation, parasites were washed with PBS, and the pellet was incubated with 500 µL of DNase-free RNase (200 µg/mL) (Thermo Fisher) for 1 hour. Afterward, parasites were stained with PI dye (50 µg/mL), and the percentage of parasites in the sub-G0/G1 phase was analyzed using FACS Calibur flow cytometry ([20]).
In general terms: A flow cytometer gives signals particle by particle.

Data set [7] relates to L. donovani promastigotes. Nature of the data set: ROS in Leishmania promastigotes (H2DCFDA, flow cytometry). Format: cell-based, Leishmania donovani. As to conditions: promastigotes incubated with the IC50 value for 48 hours; untreated 295 ± 1.52. As for the experimental part:
Induction of ROS by promastigotes after exposure to TLR7/8 agonists was done using a cell-permeable fluorescent dye H2DCFDA (Thermo Fisher). […] After this given time period, parasites were harvested and washed thrice with PBS and resuspended in 10 µM H2DCFDA for 20 minutes in the dark at 37°C. The fluorescence was measured by using FACS Calibur flow cytometry ([24]).

The subject of data set [8] is RAW 264.7 macrophages. In words: Cytotoxicity on RAW 264.7 macrophages (MTT, 48 h). Format: cell-based. As to conditions: MTT, 48 hours, mean ± SD. The protocol:
as §1, §2

The subject of data set [9] is Leishmania in peritoneal macrophages. More on the design: method as in PMID 30991111. To be noted: cited from earlier work.
For a further data set, the system named is L. infantum. Details: method as in PMID 33851916. As to conditions: read-out: IC50 (antiamastigote) against L. infantum; cited from earlier work.
Where [10] appears, read: MTT, 48 hours, mean ± SD, read-out: RAW macrophage CC50.
Where [11] appears, read: MTT, 48 hours, mean ± SD, read-out: HeLa cell CC50.
The mark [12] stands for this setting: Fig 4 heat map, mean CC50, unit inferred, read-out: CC50, heat map, Hela Cells.

≈ marks a conversion by molar mass, not a printed value.

As for `CCCCc1nc2c(N)nc3ccccc3c2n1Cc1ccc(CNC(=O)OC(C)(C)C)cc1` [compound 7], the “TLR8 EC50” value with TLR8 is “Active”. Further, the IC50 was found to be 3.82 ± 0.39 µg/mL (≈ 8.31 µM) in data set [1] and 5.16 ± 0.79 µg/mL (≈ 11.2 µM) in [4]. Also, the CC50 at 48 h amounted to 6.28 ± 0.2 µg/mL (≈ 13.7 µM) in data set [2] (setting [10]) and 4.28 ± 0.2 µg/mL (≈ 9.31 µM) in data set [3] (setting [11]). In the data set on TLR7, the “TLL7 EC50” value was “Active”.

`CCCCc1nc2c(N)nc3ccccc3c2n1Cc1cccc(CNC(=O)OC(C)(C)C)c1` [compound 8]: the “TLR8 EC50” value in the data set on TLR8 was “Active”. The results for the half-inhibitory concentration (IC50) in data set [1] and in data set [4] were 2.21 ± 0.6 µg/mL (≈ 4.81 µM) and 3.1 ± 0.9 µg/mL (≈ 6.75 µM), respectively. The CC50 at 48 h in data set [2] (setting [10]) stood at 9.5 ± 1 µg/mL (≈ 20.7 µM); in data set [3] (setting [12]), 8.8 µg/mL (≈ 19.1 µM); in data set [3] (setting [11]), 8.86 ± 0.5 µg/mL (≈ 19.3 µM). For the same molecule, the “TLL7 EC50” value in the data set on TLR7 is reported as “Active”.

For the molecule `CCCCc1nc2c(N)nc3ccccc3c2n1Cc1cccc(CN)c1` [compound 9], the EC50 with TLR8 was […]; in the data set on TLR7 it was […]. In addition, the results for the IC50 in data set [1] and in [4] were 4.53 ± 0.58 µg/mL (≈ 12.6 µM) and 6.46 ± 0.47 µg/mL (≈ 18 µM), respectively. The CC50 at 48 h amounted to 6.67 ± 0.3 µg/mL (≈ 18.6 µM) in data set [2] (setting [10]) and 4.67 ± 0.3 µg/mL (≈ 13 µM) in [3] (setting [11]).

As for `CCCCc1nc2c(N)nc3ccccc3c2n1Cc1ccc(CN)cc1` [compound 10], the EC50 in the data set on TLR8 is […]; with TLR7, […]. The molecule also came in with an NO production in the data set on RAW 264.7 macrophages [5] (RAW 264.7 macrophages, 48 hour treatment at the IC50 value, nitrite by Griess) of 42 ± 1 µM. Further, the “NO production in unstimulated macrophages” value in the data set on RAW 264.7 macrophages [5] (RAW macrophages without LPS stimulation, in words) is “moderate NO production”. Moreover, the IC50 in data set [1] stood at 2.33 ± 0.4 µg/mL (≈ 6.48 µM); in [4], 3 ± 0.36 µg/mL (≈ 8.35 µM). For the same molecule, the “percentage of parasites in sub-G0/G1 phase” value in data set [6] is reported as 75.7% ± 1.25%. Further, the CC50 at 48 h amounted to 25.4 µg/mL (≈ 70.6 µM) in data set [2] (Fig 4 heat map, mean CC50, unit inferred, read-out: CC50, heat map, Raw Macrophages); 30.4 ± 1.6 µg/mL (≈ 84.5 µM) in data set [2] (setting [10]); 21.4 µg/mL (≈ 59.4 µM) in data set [3] (setting [12]); 29.4 ± 1.6 µg/mL (≈ 81.7 µM) in data set [3] (setting [11]). The “ROS, mean fluorescence intensity (MFI)” value in [7] is listed as 935 ± 1.

`CCCCn1cc2c(n1)c(N)nc1ccccc12` [compound 11]: the EC50 in the data set on TLR8 was 0.056 µM; in the data set on TLR7 it was 0.19 µM. Also, the figures for the IC50 in data set [1] and in data set [4] were 4.63 ± 0.45 µg/mL (≈ 19.3 µM) and 6.6 ± 0.4 µg/mL (≈ 27.5 µM), respectively. In addition, the CC50 at 48 h was found to be 6.69 ± 0.22 µg/mL (≈ 27.8 µM) in [2] (setting [10]), 4.88 µg/mL (≈ 20.3 µM) in data set [3] (setting [12]) and 4.67 ± 0.2 µg/mL (≈ 19.4 µM) in [3] (setting [11]). For the same molecule, the “RAW macrophage CC50” value in the data set with RAW 264.7 macrophages [8] was 6.67 ± 0.2 µg/mL.

For `Oc1ccc(/C=C/c2cc(O)cc(O)c2)cc1` [resveratrol], the “IC50 against Leishmania in peritoneal macrophages” value in data set [9] is recorded as 0.09 µg/mL (≈ 0.394 µM).

Take `CC(=O)OC1C(O)CC(OC2C(O)CC(OC3C(O)CC(OC4CCC5(C)C(CCC6C5CCC5(C)C(C7=CC(=O)OC7)CCC65O)C4)OC3C)OC2C)OC1C` (stereo not drawn) [β-acetyl-digitoxin]: the IC50 with L. infantum was 20.9 ± 2.6 µM.

For orientation: IC50 means the midpoint of a concentration-inhibition curve. A word on the CC50: it is the concentration giving 50% cytotoxicity. In general, EC50 refers to the concentration giving half of the maximal effect.
